Results taken from patent US6194395A, “Cyclodextrin cladribine formulations” (Orthro-McNeil Pharmaceutical, Inc., priority 1999, dated 2001).
≈ marks a conversion by molar mass, not a printed value. Entries after “also recorded” stand apart in the source; their conditions may differ. Like-named read-outs stand apart in the source and are kept apart here.

Tests used:
[1] = Solubility of cladribine in water at various HPCD concentrations (HPLC); type: physicochemical; details: no HPCD, temperature not stated, read-out: normal solubility of cladribine in water
[2] = in words, cited from earlier work
[3] = Solubility of cladribine in water at various HPCD concentrations (HPLC); type: physicochemical; details: for solubility at 120 h: pH 7.3
Experimental: The cylodextrin and the buffer salts were solved in Water for Injection and an excess of Cladribine was added. The solution was shaken during 5 days at room temperature and 4° C. The solution was filtered through a 0.2 μm filter.
The solubility of cladribine in water at various concentrations of 2-Hydroxypropyl-β-Cyclodextrin (HPCD) was measured by high performance liquid chromatography. […] Table 2 sets forth the results of the solubility measurements for the HPCD/cladribine formulation of Example 1.

[4] = Stability of cladribine with/without HPCD at pH 1.4 and 8.2 at room temperature; type: physicochemical
Experimental: The effect of the HPCD on the stability of cladribine at pH 1.4 and 8.2 at room temperature was measured.

In the case of Nc1nc(Cl)nc2c1ncn2[C@H]1C[C@H](O)[C@@H](CO)O1 [Cladribine, 2-chloro-2'-deoxyadenosine], the solubility [1] is given as ~4520 µg/mL (≈ 15.8 mM), the stability in acid ([2]; acidic environment of the gastro-intestinal system) is given as “acid labile” and the “stability in simple saline solutions” value ([2]; simple saline) is given as “limited stability”. For the same molecule, the solubility in water ([2]; water) was “slightly soluble”, the solubility at 120 h ([3]; 10% hp-β-cd in buffered water, pH 7.3, 4° C., 10% HP-β-CD (W/W), read-out: Solubility of Cladribine at 4° C.) was 4.93 mg/mL (≈ 17.3 mM) and the solubility at 120 h ([3]; 10% hp-β-cd in buffered water, pH 7.3, RT, 10% HP-β-CD (W/W), read-out: Solubility of Cladribine (mg/ml) at RT) was 6.4 mg/mL (≈ 22.4 mM). For the same molecule, the solubility at 120 h ([3]; 15% hp-β-cd in buffered water, pH 7.3, 4° C., 15% HP-β-CD (W/W), read-out: Solubility of Cladribine at 4° C.) was 6.51 mg/mL (≈ 22.8 mM), the solubility at 120 h ([3]; 15% hp-β-cd in buffered water, pH 7.3, RT, 15% HP-β-CD (W/W), read-out: Solubility of Cladribine (mg/ml) at RT) was 8.47 mg/mL (≈ 29.6 mM) and the solubility at 120 h ([3]; 20% hp-β-cd in buffered water, pH 7.3, 4° C., 20% HP-β-CD (W/W), read-out: Solubility of Cladribine at 4° C.) was 8.27 mg/mL (≈ 28.9 mM). For the same molecule, the solubility at 120 h ([3]; 20% hp-β-cd in buffered water, pH 7.3, RT, 20% HP-β-CD (W/W), read-out: Solubility of Cladribine (mg/ml) at RT) was 10.5 mg/mL (≈ 36.7 mM), the solubility at 120 h ([3]; 25% hp-β-cd in buffered water, pH 7.3, 4° C., 25% HP-β-CD (W/W), read-out: Solubility of Cladribine at 4° C.) was 9.91 mg/mL (≈ 34.7 mM) and the solubility at 120 h ([3]; 25% hp-β-cd in buffered water, pH 7.3, RT, 25% HP-β-CD (W/W), read-out: Solubility of Cladribine (mg/ml) at RT) was 12.4 mg/mL (≈ 43.3 mM). For the same molecule, the “solubility of cladribine in water through use of the cyclodextrin formulation” value ([3]; with cyclodextrin, in words) was “significantly enhanced; also recorded: greatly increased”, the “stability against hydrolysis when combined with cyclodextrins” value ([4]; combined with cyclodextrins, in words) was “significantly more stable” and the “stability at lower pH when combined with cyclodextrins like HPCD” value ([4]; lower pH, with cyclodextrins like HPCD) was “significantly more stable”. For the same molecule, the “stability at pH 1.4” value ([4]; pH 1.4, room temperature, with HPCD versus cladribine solution without HPCD (FIG. 1)) was “significantly enhanced”.
